This note sets out measurements from PMC4623604, “Discovery of Small Molecules that Inhibit the Disordered Protein, p27^Kip1” (Scientific Reports, 2015).

Each structure is given as a SMILES string.

In one assay the target is T1, p27-D2-FL/Cdk2/cyclin A (Homo sapiens, UniProt P46527, C99S/R93C).
T1 construct: p27-D2 (residues 58-105 of human p27); 6xHis (N, cleaved yes); made in house; host or cells: E. coli for p27-D2
Put plainly: Fluorescence anisotropy displacement of p27-D2-FL from Cdk2/cyclin A. It is filed as binding. To be noted: 20 nM p27-D2-FL, 300 nM Cdk2/cyclin A, SJ403 0-3 mM; read-out: IC50, reduction of fluorescence anisotropy of p27-D2-FL (displacement from Cdk2/cyclin A). The text has this: We used the Group 2 molecule, SJ403 (Suppl. Table 1b), to test our hypothesis that molecules that bind to p27 can alter its Cdk regulatory function. […] We first used fluorescence anisotropy (FA) to monitor displacement of a single-cysteine (Cys) mutant of p27-D2, with arginine 93 mutated to Cys (R93C) and labeled with Alexa Fluor 488 (p27-D2-FL), from Cdk2/cyclin A by SJ403.
The p27-D2-C99S-R93C mutant was conjugated with Alexa Fluor488-C5-Maleimide (Life Technologies, p27-D2-FL) in buffer containing 20 mM Na phosphate, pH7.3, 20 mM NaCl according to the manufacturer’s protocol. The conjugated protein was further purified by reverse-phase high performance liquid chromatography (HPLC) using a C4 column (Vydac) and 0.1% trifluoroacetic acid-containing water/acetonitrile solvent system. Lyophilized HPLC fractions were resuspended in buffer containing 20 mM Na phosphate, pH 7, 200 mM NaCl, 3.5 mM TCEP. Fluorescence anisotropy measurements were performed at 25 °C on a Horiba Fluorolog 3 spectrofluorometer. Briefly, p27-D2-FL (20 nM) was mixed with Cdk2/Cyclin A (300 nM) and added to the required amount of lyophilized compound (SJ403). All samples have been incubated overnight in the dark at 4 °C prior to fluorescence measurements. Fluorescence anisotropy binding data was analyzed using KaleidaGraph. […]

A further assay addresses T2, Cdk2/cyclin A (Homo sapiens, UniProt P24941).
T2 construct: Full length human Cdk2, active Cdk2 (phosphorylated at threonine 160); truncated human cyclin A (residues 173–432); made in house
Nature of the assay: Cdk2/cyclin A kinase activity assay (Histone H1 substrate). The assay is classed as biochemical. To be noted: SJ403 alone, 10 μM to 3 mM, 200 pM Cdk2/cyclin A. Here is the method:
Cdk2/Cyclin A (200 pM) was mixed with Histone H1 (15 μM; EMD Millipore), p27-D2 (200 nM) and varied amounts of lyophilized SJ403 and incubated overnight at 4 °C. The effect of the SJ403 compound on Cdk2 activity was determined by performing similar experiments in the absence of p27-D2. Subsequently, ATP (50 μM total concentration, of which 6 μCi γ ^32P-ATP (PerkinElmer, Inc)) was added to each reaction and further incubated for 35 minutes at 30 °C. […] The sample buffer contained 20 mM HEPES pH 7.3, 25 mM sodium β-glycerolphosphate, 15 mM MgCl2, 16 mM EGTA, 0.5 mM Na3VO4 and 10 mM DTT. The reactions were quenched by addition of SDS-gel loading buffer (5 μL) and then analyzed by SDS-PAGE (10 μL). The gels were dried at 70 °C under vacuum and a phosphoimager (GE Healthcare, Piscataway, NJ) was used to quantify the ^32P-Histone H1 bands. IC50 values were determined by curve fitting using KaleidaGraph software. Experiments were performed in triplicate and mean IC50 and standard deviations of the mean values are reported.

Assay [1] addresses T3, p27-KID mutants (Homo sapiens, UniProt P46527, Y88A).
T3 construct: 6xHis (N, cleaved yes); made in house; host or cells: E. coli (pET28a)
Put plainly: 2D NMR binding mapping with p27-KID mutants. The text has this:
(§1) (Fig. 7a–c); these interaction sites are all within the Cdk2-binding D2 sub-domain. […] In fact, sub-domain D2 contains eight of the nine aromatic amino acids found within p27; a ninth, F33, is found within sub-domain D1 but […] to small molecules. Group 1 molecules caused the largest CSPs for residues F87, Y88 and Y89 within sub-region D2.3 and Group 2 molecules perturbed resonances for these residues as well as for residues W60, N61 (sub-region D2.1) and E75, W76 and Q77 (sub-region D2.2).
(§2) The p27 constructs were expressed in E. Coli with an N-terminal 6xHis affinity tag after sub-cloning into pET28a (Novagen) using established procedures. […]
(§3) Screening and validation NMR experiments were performed at 298 K (25 °C) using either a Varian Inova 600 MHz spectrometer equipped with a triple resonance (HCN) room temperature gradient probe or a Bruker Avance 600 MHz spectrometer equipped with TCI cryogenic gradient probe and a SampleJet sample changer. Fragment molecules were initially analyzed as pools of five molecules dissolved at 10 mM each in DMSO-D6. […] NMR spectra were recorded for compound pools without and with protein. […] 2D ^1H-^15N TROSY-HSQC NMR experiments with ^2H/^13C/^15N-p27-D2/Cdk2/cyclin A and SJ403 have been recorded at 308 K (35 °C). […] NMR spectra were processed using Bruker Topspin software and analyzed using computer-aided resonance assignment (CARA) software.

The subject of assay [2] is p27-KID mutants. Put plainly: 2D NMR binding mapping with p27-KID mutants. Set-up: species or system human.
Description: as §1, §2, §3

T3 sequence (P46527 22-105 Y88A): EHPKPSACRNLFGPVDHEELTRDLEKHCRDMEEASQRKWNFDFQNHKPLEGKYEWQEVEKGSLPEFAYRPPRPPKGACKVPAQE
T1 sequence (P46527 58-105 R93C/C99S): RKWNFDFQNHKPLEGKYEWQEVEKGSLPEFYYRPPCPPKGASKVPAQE

Regarding `CCn1c(C)c(C)n2c3c(=O)n(C)c(=O)n(C)c3nc12` [SJ403], at p27-D2-FL/Cdk2/cyclin A, the IC50 worked out at 475 ± 67 µM. Also, the “effect on Cdk2/cyclin A activity in the absence of p27-D2” value at Cdk2/cyclin A was “substantially inhibited”. The “CSPs with Y88 to A p27-KID mutant” value on p27-KID mutants [1] is listed as “caused CSPs near the two W residues (W60 or W76) but not within the F87A88Y89 region”. Besides, the “CSPs with doubly mutated p27-KID variants (W60A-W76A, W60F-W76F)” value in the assay with p27-KID mutants [2] is “only very weak CSPs within the F87YY89 aromatic cluster”.
